Patent US6476076B1 (priority 1999, dated 2002)
Several values for one entry are separate records, joined by “and”; a condition that tells them apart may be missing. Equal entries are not always repeated. Where two headings read alike, the source gives them in different places.

Assays:
[1] = biological target: T1, vanilloid receptor (rat spinal cord membrane preparations) (Rattus norvegicus, UniProt O35433); assay: biochemical; format: binding
T1 construct: determined on membrane preparations from rat spinal cord; from tissue; host or cells: rat spinal cord membranes
T1 sequence (O35433 whole entry): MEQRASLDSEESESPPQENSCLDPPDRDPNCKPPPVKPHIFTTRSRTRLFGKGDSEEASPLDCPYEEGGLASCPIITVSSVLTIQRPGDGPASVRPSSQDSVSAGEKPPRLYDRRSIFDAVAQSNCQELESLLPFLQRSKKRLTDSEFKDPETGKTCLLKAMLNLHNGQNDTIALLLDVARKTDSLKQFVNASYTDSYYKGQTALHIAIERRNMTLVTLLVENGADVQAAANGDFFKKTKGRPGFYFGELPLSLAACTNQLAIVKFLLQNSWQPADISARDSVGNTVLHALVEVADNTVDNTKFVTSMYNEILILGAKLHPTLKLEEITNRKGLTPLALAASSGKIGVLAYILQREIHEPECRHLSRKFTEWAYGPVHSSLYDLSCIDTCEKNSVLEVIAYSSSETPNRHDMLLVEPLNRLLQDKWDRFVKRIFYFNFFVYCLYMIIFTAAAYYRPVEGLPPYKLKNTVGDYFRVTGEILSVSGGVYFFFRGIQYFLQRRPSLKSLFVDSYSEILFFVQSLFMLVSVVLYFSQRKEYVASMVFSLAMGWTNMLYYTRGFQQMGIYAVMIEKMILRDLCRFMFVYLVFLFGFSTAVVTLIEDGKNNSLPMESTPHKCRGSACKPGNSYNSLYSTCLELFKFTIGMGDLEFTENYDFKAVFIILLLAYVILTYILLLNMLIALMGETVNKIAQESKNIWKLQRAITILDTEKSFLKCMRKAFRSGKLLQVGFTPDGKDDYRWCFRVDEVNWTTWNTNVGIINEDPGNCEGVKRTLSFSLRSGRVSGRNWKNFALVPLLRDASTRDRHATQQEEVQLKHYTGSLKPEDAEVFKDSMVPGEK

[2] = tested on: TPA-induced ear edema in ICR mice; conditions: mouse, in vivo
[3] = biological target: T2, CAP-activated channels in cultured neonatal rat dorsal root ganglion (DRG) neurons (Rattus norvegicus, UniProt O35433); format: cell-based; design: key: + = CAP; ++ = 10 CAP; +++ = 100 CAP
T2 construct: extracellular application of the compounds to cultured neonatal rat dorsal root ganglion (DRG) neurons; endogenous in cells; host or cells: primary cultured DRG neurons from 1 or 2 day old neonatal rats
T2 sequence (O35433 whole entry): as above

[4] = tested on: PBQ-induced writhing in ICR mice; assay: animal or person; format: in vivo, mouse; conditions: for Relative Potency (Writhing Test) / Writhing Test ED50: mouse, in vivo; for Writhing Test ED50 / ED50: ip; for ED50: Mus musculus, read-out: Writhing Test ED50
[5] = tested on: rat eye (eye-wiping response); conditions: in vivo
DRG neurons = assay: cells; format: cell-based; conditions: Rattus norvegicus, DRG neuron, 10 min, read-out: 45Ca Influx EC50
[6] = tested on: acetic acid-induced writhing in ICR mice; assay: animal or person; format: in vivo, mouse; conditions: for ED50: Mus musculus, ip, read-out: Writhing Test ED50

| Compound | Ear Edema Assay ID50 [2] [μg/ear] | Relative Potency (Ear Edema Assay) [2] | Relative Potency (Writhing Test) [4] | MPP: moderate pain-producing potency [5] | EC50 (DRG neurons) [nM] | ED50 [6] [mg/kg] | other results |
| --- | --- | --- | --- | --- | --- | --- | --- |
| 2-(3,4-Dimethylbenzyl)-3-{[(4-hydroxy-3-methoxybenzyl)amino]carbothioyl}propyl Pivalate [7b-I] | 18 | 0.17 | 600 | 0.002% | – | – | times more potent than CAP (receptor binding) [1]: ca. 280 times; Activations [3]: ++; Writhing Test ED50 [4]: 0.0005 mg/kg; RPP: relative pain-producing potency [5]: 15 |
| COc1cc(CC(=O)NCCCc2ccc(C)c(C)c2)ccc1OCCN [DA-5018, 2-[4-(2-aminoethoxy)-3-methoxyphenyl]-N-[3-(3,4-dimethylphenyl)propyl]acetamide, reference compound] | 200 | 0.015 | 100 | 0.003% | 234 | 0.00227 | antiinflammatory activity in the TPA ear edema assay (in words) [2]: weak topical activity; ED50 [4]: 0.003 mg/kg; RPP: relative pain-producing potency [5]: 10 |
| COc1cc(CNC(=O)CCCC/C=C/C(C)C)ccc1O [Capsaicin, reference compound] | 3 | – | – | 0.0003% | 435 | – | antiinflammatory activity in the TPA ear edema assay (in words) [2]: strong anti-edema activity; ED50 [4]: 0.3 mg/kg; % Reduction of response to 0.001% capsaicin [5]: 55 (0.1) % and 35 (0.01) %; response to 0.001% CAP challenge 6 h posttreatment (in words) [5]: attenuated eye-wiping response |
| COc1cc(CNC(=S)NCC(COC(=O)C(C)(C)C)Cc2ccc(C(C)(C)C)cc2)ccc1OCCN (centres unmarked) [36b, 2,2-Dimethyl Propionic Acid 2-{3-[4-(2-Aminoethoxy)-3-methoxybenzyl]thioureido Methyl}-3-(4-t-butylphenyl)propyl Ester] | – | – | – | – | 377 ± 67 | 0.0482 | – |
| COc1cc(CNC(=S)NCC(COC(=O)C(C)(C)C)Cc2ccc(C(C)(C)C)cc2)ccc1OC(=O)CCC(=O)O (centres unmarked) [23b, Succinic Acid Mono-(4-{3-[3-(4-t-butyl-phenyl)-2-(2,2-dimethylpropionyloxymethyl)-propyl]-thioureidomethyl}-2-methoxy-phenyl) Ester] | – | – | – | – | 7000 ± 1200 | 0.06 | – |
| COc1cc(CC(=O)NCC(COC(=O)C(C)(C)C)Cc2ccc(C(C)(C)C)cc2)ccc1OCCN (centres unmarked) [28b, 2,2-Dimethyl Propionic Acid 2-({2-[4-(2-Aminoethoxy)-3-methoxyphenyl]acetylamino}methyl)-3-(4-t-butylphenyl)propyl Ester] | – | – | – | – | 878 ± 170 | 0.00812 | – |
| COc1cc(CNC(=S)NCC(COC(=O)C(C)(C)C)Cc2ccc(C)c(C)c2)ccc1OCCN (centres unmarked) [36a, 2,2-Dimethyl Propionic Acid 2-{3-[4-(2-Aminoethoxy)-3-methoxybenzyl]thioureido Methyl}-3-(3,4-dimethylphenyl)propyl Ester] | – | – | – | – | 83 ± 12 | 0.014 | – |
| COc1cc(CC(=O)NCC(COC(=O)C(C)(C)C)Cc2ccc(C)c(C)c2)ccc1OCCN (centres unmarked) [28a, 2,2-Dimethyl Propionic Acid 2-({2-[4-(2-Aminoethoxy)-3-methoxyphenyl]acetylamino}methyl)-3-(3,4-dimethylphenyl)propyl Ester] | – | – | – | – | 1570 ± 230 | 0.00096 | analgesic activity (in words) ([6]; mouse, in vivo): the most potent one and more potent than DA-5018 |
| COc1cc(CNC(=S)NCC(COC(=O)C(C)(C)C)Cc2ccc(C(C)(C)C)cc2)ccc1OCC(=O)O (centres unmarked) [19b, 2,2-Dimethyl-propionic Acid 3-(4-t-Butyl-phenyl)-2-[3-(4-carboxymethoxy-3-methoxy-benzyl)-thioureidomethyl]-propyl Ester] | – | – | – | – | 12300 ± 1580 | 0.365 | – |
| COc1cc(CNC(=S)NCC(COC(=O)C(C)(C)C)Cc2ccc(C)c(C)c2)ccc1OCC(=O)O (centres unmarked) [19a, 2,2-Dimethyl-propionic Acid 2-[3-(4-Carboxymethoxy-3-methoxy-benzyl)-thioureidomethyl]-3-(3,4-dimethyl-phenyl)-propyl Ester] | – | – | – | – | 7770 ± 800 | 0.431 | – |
| 2-(3,4-Dimethylbenzyl)-3-{[(4-hydroxy-3-methoxybenzyl)amino]carbothioyl}propyl 3,4-Dimethylbenzoate [7b-VI] | 50 | 0.06 | 150 | – | – | – | Ki ([1]; read-out: Affinities (Ki)): 184 nM; Activations [3]: +++; Writhing Test ED50 [4]: 0.002 mg/kg |
| COc1cc(CNC(=S)NCC(COC(=O)C(C)(C)C)Cc2ccc(C)c(C)c2)ccc1OC(=O)CCC(=O)O (centres unmarked) [23a, Succinic Acid Mono-(4-{3-[3-(3,4-dimethyl-phenyl)-2-(2,2-dimethyl-propionyloxymethyl)-propyl]-thioureidomethyl}-2-methoxy-phenyl) Ester] | – | – | – | – | 7040 ± 1300 | 0.0531 | – |
| 2-(4-t-Butylbenzyl)-3-{[(4-hydroxy-3-methoxybenzyl)amino]carbothioyl}propyl Pivalate [7d-I] | 5 | 0.6 | 300 | 0.003% | – | – | times more potent than CAP (receptor binding) [1]: ~490 times; Activations [3]: ++; Writhing Test ED50 [4]: 0.001 mg/kg; % Reduction of response to 0.001% capsaicin [5]: 0 (0.1) %; RPP: relative pain-producing potency [5]: 10 |
| CCCCCCCC/C=C\CCCCCCCC(=O)NCc1ccc(O)c(OC)c1 [Olvanil, reference compound] | 30 | 0.1 | 10 | WP^c | – | 0.0174 | antiinflammatory activity in the TPA ear edema assay (in words) [2]: weak topical activity; ED50 [4]: 0.03 mg/kg; % Reduction of response to 0.001% capsaicin [5]: 0.1% |
| 2-(4-t-Butylbenzyl)-3-{[(4-hydroxy-3-methoxybenzyl)amino]carbothioyl}propyl Benzoate [7d-V] | 30 | 0.1 | 200 | – | – | – | Ki ([1]; read-out: Affinities (Ki)): 60.2 nM; Activations [3]: ++; Writhing Test ED50 [4]: 0.0015 mg/kg |
| 2-(3,4-Dimethylbenzyl)-3-{[(4-hydroxy-3-methoxybenzyl)amino]carbothioyl}propyl benzoate [7b-V] | 50 | 0.06 | 43 | – | – | – | Ki ([1]; read-out: Affinities (Ki)): 409 nM; Activations [3]: ++; Writhing Test ED50 [4]: 0.007 mg/kg |
| C=C(C)[C@]12C[C@@H](C)[C@@]34O[C@](Cc5ccccc5)(O[C@@H]1[C@@H]3C=C(COC(=O)Cc1ccc(O)c(OC)c1)C[C@]1(O)C(=O)C(C)=C[C@@H]41)O2 [RTX, Resiniferatoxin, reference compound] | 0.002 | 1,500 | 30,000 | 0.0001% | – | – | Ki [1]: 0.023 nM; RPP: relative pain-producing potency [5]: 300; pungency, fold more potent than CAP [5]: 3 fold |
